Results from patent US20110229534A1, “Non-Irritating Oral Care Formulations” (The Trustees of Columbia University In The City Of New York, priority 2006, published 2011).
Like-named read-outs stand apart in the source and are kept apart here.

How the values were obtained:
GCF-IL-1 beta = details: used as an oral rinse; cited from earlier work
[1] = oral rinse containing ketorolac; small number of patients; cited from earlier work
[2] = oral administration; cited from earlier work
Streptococcus mutants = details: for Growth: CFU/ml: subcultured on TSA, 24 hours
Method: A culture of Streptococcus mutants (causative bacteria for dental plaque) was grown in brain/heart infusion (BHI). Tubes containing 5 ml of BHI were inoculated with 0.1 ml of 10^5 CFU bacteria/ml and incubated anaerobically at 37° C. After 24 hours the turbidity was measured; the tubes were subcultured on TSA and incubated for 24 hours and colony counts were measured.

[3] = cited from earlier work

O=C(c1ccccc1)c1ccc2n1CCC2C(=O)O (stereo not shown) [ketorolac]
effect on GCF-IL-1 beta in the oral cavity (GCF-IL-1 beta): reduce GCF-IL-1 beta
oral mucosal side effect [1]: ulceration in the oral mucosa was observed
gastric mucosal side effect [2]: gastric mucosal ulceration

Zinc salicylate
anti-Streptococcus activity (conclusion) (Streptococcus mutants): exhibit anti-Streptococcus activity
Growth: CFU/ml (Streptococcus mutants; 25 ug/ml): >10^8 CFU/ml
Growth: CFU/ml (Streptococcus mutants; 50 ug/ml): >10^6 CFU/ml
Growth: CFU/ml (Streptococcus mutants; 100 ug/ml): 10 CFU/ml
Growth: CFU/ml (Streptococcus mutants; 200 ug/ml): 0 CFU/ml

zinc glycerate
water solubility (in words) [3]: moderately water soluble

zinc picolinate
water solubility (in words) [3]: moderately water soluble
